Patent publication US20230172940A1, “METHODS OF EXTENDING LIFESPAN BY ADMINISTERING FERROPTOSIS INHIBITORS” (COLLABORATIVE MEDICINAL DEVELOPMENT, LLC, priority 2020, published 2023)
Structures can show the parent of a compound that is named as a salt.

Assays:
C. elegans [1] = settings: DEM at 10-100 μM, minor glutathione loss; cited from earlier work
[2] = test system: Hydroxynonenal (4-HNE) protein adducts; assay: Lipid peroxidation: 4-HNE protein adducts (immunoblot); assay type: in vivo, Caenorhabditis elegans; settings: qualitative
Description: Analysis of Hydroxynonenal (4-HNE) protein adducts was also used as a proxy for lipid peroxidation. Duplicate samples of 50 and 200 worms were collected and washed twice in S-basal^o pelleted by centrifugation and the supernatant discarded. These samples (^˜30 μL) were frozen in liquid-N2 and stored at −80° C. until needed. To each sample an 10 μL 4× Bolt LDS sample buffer (Invitrogen) and 3 μL TCEP (Invitrogen) was added and the sample heated to 95° C. for 10 min. Lysates were loaded onto NuPAGE™ 4-12% Bis-Tris acrylamide gels (1.0 mm^o 10-well^o Invitrogen)^o electrophoresed with MES running buffer and then transferred onto 0.45 μm PVDF membrane by electroblot using a Mini Blot module (Invitrogen). 4-HNE protein adducts were detected by an anti 4-HNE protein adduct antibody (1:2000^o AB5605^o Millipore) in Tris-buffer saline with 5% skim milk^o and ECL (GE Healthcare). The membranes were stripped using a 1× ReBlot Strong Antibody Stripping Solution (Merck) for 15 min^o reprobed for tubulin using an anti-Tubulin antibody (1:10^o000^oT6074^o Sigma-Aldrich).

C. elegans iron-proteome = assay: Size exclusion chromatography-ICP-MS of soluble iron; assay type: in vivo, Caenorhabditis elegans; settings: aged C. elegans (10 days post adulthood)
Description: Liquid chromatography was performed using established protocols. Briefly^o samples of aged C. elegans were lysed using a Bioruptor Next Gen (Diagenode) bath sonicator set on HIGH and cooled to 4° C. using 10 cycles of 10 sec ON and 10 sec OFF^o in a 1:1 volume ratio of Tris-buffered saline (pH 8.0) with added proteinase inhibitors (EDTA-free; Roche). Sample homogenization was confirmed by microscopic inspection. Lysates were then centrifuged for 15 min at 175^o000 g at 4° C. The supernatant was removed and total protein concentration in the soluble fraction was determined using a NanoDrop UV spectrometer (Thermo Fisher Scientific) before being transferred to standard chromatography vials with polypropylene inserts (Agilent Technologies) and kept at 4° C. on a Peltier cooler for analysis. Size exclusion chromatography-inductively coupled plasma-mass spectrometry was performed using an Agilent Technologies 1100 Series liquid chromatography system with a BioSEC 5 SEC column (5 μm particle size^o 300 Å pore size^o I.D. 4.6 mm^o Agilent Technologies) and 7700× Series ICP-MS as previously described (Hare et al.^o 2016b). A buffer of 200 mM NH4NO3 was used for all separations at a flow rate of 0.4 mL min^−1. A total of 50 μg of soluble protein was loaded onto the column by manually adjusting the injection volume for each sample. Mass-to-charge ratios (m/z) for phosphorus (31) and iron (56) were monitored in time resolved analysis mode. Plots of the mean (±standard deviation) of three independent biological replicates are shown. Integration of the three major peaks was performed using Prism (ver. 7 for Mac OS X, Graphpad).

C. elegans [3] = assay: Antibiotic tests: lifespan with ampicillin co-administration; assay type: in vivo, Caenorhabditis elegans
Description: To determine whether the increased lifespan seen with SIH treatment could be explained solely by an antibiotic effect of iron reduction, nematodes were treated with ampicillin, with and without SIH co-administration. Even in the presence of ampicillin, SIH increased median lifespan by 6 days, similar to its benefits in the absence of ampicillin (median increase of 7 days).

C. elegans [4] = assay: Body size analysis; assay type: in vivo, Caenorhabditis elegans
Description: […] The treatment plates included NGA with 0.5% (v/v) DMSO (vehicle control, Ctl), 250 μM SIH, or 200 μM Lip-1 (as described above).
Cohorts of approximately 100 animals were transferred into a 1.5 ml centrifuge tube containing 400 μL S-basal. Following a brief centrifugation excess S-basal was removed leaving the animals suspended in 50 μL. Animals were euthanized and straightened by a 15 second exposure to 60° C. (using a heated water bath). Samples were then mounted between glass slides and a cover slip and immediately imaged. Micrographs were collected using a Leica M80 stereomicroscope and Leica DFC290 HD 3 MP) digital camera. Pixel sizes were defined using a calibrated 25 μm grid slide (Microbrightfield, Inc). Size and shape metrics were extracted from brightfield images were analyzed using the WormSizer plugin for ImageJ.
Data of estimated adult body length and volume were initially assessed for normality using a D'Agostino & Pearson test. Based on this analysis a nonparametric Kruskal-Wallis Analysis of Variance (ANOVA) was performed followed by a Dunn-Šidák test for multiple comparisons (as implemented by Prism v7.0a, GraphPad Software). There was a significant difference between body length (H(10)=432.6, p<0.0001) amongst the groups measured.

Wild type (N2) = assay: Fertility analysis; assay type: in vivo, Caenorhabditis elegans; settings: treated from early adulthood/late L4; for Early fertility (first 24 hours): p>0.4
Description: Wild type (N2) adults (4-day post egg lay) were transferred to fresh plates for 30 minutes at 20° C. to establish a developmentally synchronous population. Adult nematodes were then removed, and eggs were then transferred to 25° C. As with the survival analyses, after 48 hours at 25° C., when worms were at the late L4/young adult stage individual nematodes were transferred to plates containing vehicle control, 250 μM SIH, or 200 μM Lip-1. After 24 hours, adult worms were transferred to fresh plates and transferred daily until the end of the fertile period. After allowing progeny to develop for 2 days at 20° C., they were then counted to determine daily and total fertility. Early fertility is determined by the number of progeny laid in the first 24-hour period. Differences in fertility (i.e. early and total reproductive output) were assessed using an ordinary one-way analysis of variance (ANOVA), followed by a Tukey's multiple comparison test (as implemented by Prism v7.0a, GraphPad Software).

C. elegans [5] = assay: Temporal rescaling by temperature: lifespan at 20° C. and 25° C.; assay type: in vivo, Caenorhabditis elegans
Description: The effect of temperature is evaluated separately for control and SIH treated worms, population sizes for each replicate are shown in Table 20.
For each of two replicates and treatment factors, the AFT model with Weibull baseline hazard was fitted with temperature as the covariate. The residuals from this model were then subjected to the K-S test.
For both populations, being exposed to the higher temperature of 25° C. accelerates life as expected, by approximately 30% for control worms (Otemp=0.72 (95% Cl: 0.68; 0.77) and 20% for SIH worms (Otemp=0.81 (95% Cl: 0.78; 0.84).

SMILES	effect on lifespan as reported (C. elegans [1])	increase in 4-HNE protein adducts with age [2]	Ferritin-bound iron, normalized peak area (C. elegans iron-proteome)	iron associated with the LMW peak, normalized peak area (C. elegans iron-proteome)	iron bound within HMW species (C. elegans iron-proteome)	lifespan extension on co-administration (C. elegans [3]; SIH and the antibiotic ampicillin co-administered)	increase of median lifespan (C. elegans [3]; SIH in the absence of ampicillin) [days]	increase of median lifespan (C. elegans [3]; SIH in the presence of ampicillin) [days]	body volume (C. elegans [4]; Day 4)	body length, mean±SD (C. elegans [4]; Day 8, control 1440±123 μm, p<0.001) [μm]	body length versus similarly aged controls (C. elegans [4]; after 4 days and 8 days of intervention)	body volume over time (C. elegans [4]; in vivo)	lifetime reproductive output (Wild type (N2))	Early fertility (first 24 hours) (Wild type (N2))	lifespan extension at two temperatures (C. elegans [5])	length or volume (C. elegans [4]; in vivo)
CCOC(=O)/C=C\C(=O)OCC [DEM, Diethyl maleate]	increasing lifespan via hormesis															
O=C(N/N=C/c1ccccc1O)c1ccncc1 [SIH, Salicylaldehyde isonicotinoyl hydrazone]		suppressed	approximately 50%	approximately 40%	unaffected	additive effect on media lifespan extension	7	6	greater volume than both control and Lip-1 treated worms	1696±64	significantly longer	increase in body volume between Days 1 and 4, but not thereafter	no effect	not altered	still extended lifespan by a similar dimension	
Clc1cccc(CNC2=Nc3ccccc3NC23CCNCC3)c1 [Lip-1, N-[(3-chlorophenyl)methyl]-spiro[piperidine-4,2′(1′H)-quinoxalin]-3′-amine]		suppressed											small decrease	not altered		no effect on length or volume
